Like-named read-outs stand apart in the source and are kept apart here.

The results in this text go back to patent US10711004B2 (Genentech, Inc., priority 2018, dated 2020).

The target of the test is human TRPA1 channel (Homo sapiens (Human), UniProt O75762). The experiment in a line: hTRPA1 CHO Ca2+ FLIPR Tetra assay, block of cinnamaldehyde induced calcium influx. The format is cell-based. The following applies: for IC50: CHO cells expressing TRPA1, Hill coefficient fixed to 1.5; for TRPA1 IC50 compared with 3-azabicyclo[3.1.0]hexene linker and cyclobutylene linker analogues: bicyclo[3.1.0]hexene linker compounds versus same-substituent analogues (compounds 16, 191; 26, 1). The method in brief:
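IC50 values come from fixed-Hill fits of inhibition of cinnamaldehyde-induced (about EC50 level) calcium influx measured by FLIPR Tetra. Before agonist, TRPA1-expressing CHO cells loaded with calcium indicator were exposed to compound for 10 or 90 min at room temperature in HEPES-buffered HBSS, pH 7.4, with 0.02% BSA.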

[1] abbreviates: read-out: hTRPA1 IC50 (10 min), compounds incubated 10 minutes at room temperature before cinnamaldehyde agonist.
The mark [2] stands for this setting: read-out: hTRPA1 IC50 (90 min), compounds incubated 90 minutes at room temperature before cinnamaldehyde agonist.

human TRPA1 channel, sequence (O75762 whole entry): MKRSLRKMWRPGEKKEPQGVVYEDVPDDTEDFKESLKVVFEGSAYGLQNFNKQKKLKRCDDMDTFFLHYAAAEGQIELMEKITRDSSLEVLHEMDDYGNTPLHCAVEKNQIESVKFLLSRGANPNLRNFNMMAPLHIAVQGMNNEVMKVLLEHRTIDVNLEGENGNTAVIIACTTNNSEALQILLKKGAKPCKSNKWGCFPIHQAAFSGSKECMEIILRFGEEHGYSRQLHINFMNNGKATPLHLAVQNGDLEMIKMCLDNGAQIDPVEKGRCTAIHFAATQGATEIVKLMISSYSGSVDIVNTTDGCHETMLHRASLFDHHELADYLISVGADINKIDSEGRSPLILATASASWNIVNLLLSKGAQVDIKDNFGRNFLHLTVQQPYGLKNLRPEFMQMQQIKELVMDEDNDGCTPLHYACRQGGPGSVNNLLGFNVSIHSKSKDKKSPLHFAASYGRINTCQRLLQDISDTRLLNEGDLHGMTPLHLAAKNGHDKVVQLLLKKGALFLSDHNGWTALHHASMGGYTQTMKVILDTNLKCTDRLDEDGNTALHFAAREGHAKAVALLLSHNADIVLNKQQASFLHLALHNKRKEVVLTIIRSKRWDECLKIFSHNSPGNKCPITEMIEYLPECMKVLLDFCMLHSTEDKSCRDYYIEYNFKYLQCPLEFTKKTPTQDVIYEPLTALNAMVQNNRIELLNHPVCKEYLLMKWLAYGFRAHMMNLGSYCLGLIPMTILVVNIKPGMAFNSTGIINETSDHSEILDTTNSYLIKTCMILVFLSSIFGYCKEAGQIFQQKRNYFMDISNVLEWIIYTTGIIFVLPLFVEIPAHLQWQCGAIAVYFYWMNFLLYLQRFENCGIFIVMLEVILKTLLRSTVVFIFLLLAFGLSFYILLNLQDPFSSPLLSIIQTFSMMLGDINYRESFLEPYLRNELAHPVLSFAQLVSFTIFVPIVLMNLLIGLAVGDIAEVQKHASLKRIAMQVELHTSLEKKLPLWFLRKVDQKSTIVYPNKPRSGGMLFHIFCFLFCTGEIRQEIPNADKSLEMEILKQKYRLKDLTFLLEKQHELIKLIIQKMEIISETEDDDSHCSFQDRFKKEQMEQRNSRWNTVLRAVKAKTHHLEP

Broadly, the IC50 is the concentration at which inhibition is half-maximal. As to `Cc1cc(C#N)nc2ncn(Cc3nc([C@H]4[C@@H]5CN(c6cc(Cl)ccn6)C[C@@H]54)no3)c(=O)c12` [Example Compound 107, 3-((3-((1R,5S,6r)-3-(4-chloropyridin-2-yl)-3-azabicyclo[3.1.0]hexan-6-yl)-1,2,4-oxadiazol-5-yl)methyl)-5-methyl-4-oxo-3,4-dihydropyrido[2,3-d]pyrimidine-7-carbonitrile], the IC50 by setting is: under setting [1], 49 nM; under setting [2], 9.1 nM.

As to `Cn1nnc2ncn(Cc3nc([C@H]4[C@@H]5C=C(c6ccccc6)C[C@@H]54)no3)c(=O)c21` [Example Compound 108, 1-methyl-6-((3-((1 S,5 S,6R)-3-phenylbicyclo[3.1.0]hex-2-en-6-yl)-1,2,4-oxadiazol-5-yl)methyl)-1,6-dihydro-7H-[1,2,3]triazolo[4,5-d]pyrimidin-7-one], the 50% inhibitory concentration (IC50) by setting is: under setting [1], 6.12 nM; under setting [2], 3.1 nM.

For the compound `Cn1nnc2ncn(Cc3nc([C@@H]4[C@H]5C=C(c6ccccc6)C[C@H]54)no3)c(=O)c21` [Example Compound 109, 1-methyl-6-((3-((1R,5R,6S)-3-phenylbicyclo[3.1.0]hex-2-en-6-yl)-1,2,4-oxadiazol-5-yl)methyl)-1,6-dihydro-7H-[1,2,3]triazolo[4,5-d]pyrimidin-7-one], the half-maximal inhibitory concentration (IC50) under setting [1] is 10.4 nM and the IC50 under setting [2] was found to be 4.1 nM.

Consider `Cn1cnc2ncn(Cc3nc([C@@H]4[C@H]5C=C(c6ccc(F)cn6)C[C@H]54)no3)c(=O)c21` [Example Compound 110, 1-((3-((1R,5R,6S)-3-(5-fluoropyridin-2-yl)bicyclo[3.1.0]hex-2-en-6-yl)-1,2,4-oxadiazol-5-yl)methyl)-7-methyl-1,7-dihydro-6H-purin-6-one], for which the 50% inhibitory concentration (IC50) by setting is: under setting [1], 64 nM; under setting [2], 27 nM.

For the compound `Cn1cnc2ncn(Cc3nc([C@H]4[C@@H]5C=C(c6ccc(F)cn6)C[C@@H]54)no3)c(=O)c21` [Example Compound 111, 1-((3-((1S,5S,6R)-3-(5-fluoropyridin-2-yl)bicyclo[3.1.0]hex-2-en-6-yl)-1,2,4-oxadiazol-5-yl)methyl)-7-methyl-1,7-dihydro-6H-purin-6-one], the concentration for half-maximal inhibition (IC50) is 116 nM under setting [1] and 78 nM under setting [2].

For `Cn1cnc2ncn(Cc3nc([C@H]4[C@@H]5C=C(c6ccc7scnc7c6)C[C@@H]54)no3)c(=O)c21` [Example Compound 112, 1-((3-((1S,5S,6R)-3-(benzo[d]thiazol-5-yl)bicyclo[3.1.0]hex-2-en-6-yl)-1,2,4-oxadiazol-5-yl)methyl)-7-methyl-1,7-dihydro-6H-purin-6-one], the 50% inhibitory concentration (IC50) is 36 nM under setting [1] and 24 nM under setting [2].

Take `Cn1cnc2ncn(Cc3nc([C@@H]4[C@H]5C=C(c6ccc7scnc7c6)C[C@H]54)no3)c(=O)c21` [Example Compound 113, 1-((3-((1R,5R,6S)-3-(benzo[d]thiazol-5-yl)bicyclo[3.1.0]hex-2-en-6-yl)-1,2,4-oxadiazol-5-yl)methyl)-7-methyl-1,7-dihydro-6H-purin-6-one]: the concentration for half-maximal inhibition (IC50) runs as follows: under setting [1], 36.2 nM; under setting [2], 34 nM.

In the case of `Cn1cnc2ncn(Cc3nc([C@H]4[C@@H]5C=C(c6cccc(F)c6)C[C@@H]54)no3)c(=O)c21` [Example Compound 114, 1-((3-((1S,5S,6R)-3-(3-fluorophenyl)bicyclo[3.1.0]hex-2-en-6-yl)-1,2,4-oxadiazol-5-yl)methyl)-7-methyl-1,7-dihydro-6H-purin-6-one], the “TRPA1 IC50 compared with 3-azabicyclo[3.1.0]hexene linker and cyclobutylene linker analogues” value is recorded as “improved TRPA1 IC50 values”. For the same compound, under setting [1], the half-inhibitory concentration (IC50) was 6.4 nM. Also, the IC50 under setting [2] worked out at 1.7 nM.

Regarding `Cn1cnc2ncn(Cc3nc([C@@H]4[C@H]5C=C(c6cccc(F)c6)C[C@H]54)no3)c(=O)c21` [Example Compound 115, 1-((3-((1R,5R,6S)-3-(3-fluorophenyl)bicyclo[3.1.0]hex-2-en-6-yl)-1,2,4-oxadiazol-5-yl)methyl)-7-methyl-1,7-dihydro-6H-purin-6-one], the “TRPA1 IC50 compared with 3-azabicyclo[3.1.0]hexene linker and cyclobutylene linker analogues” value is listed as “improved TRPA1 IC50 values”. For the same compound, the IC50 under setting [1] is 9.73 nM. The concentration for half-maximal inhibition (IC50) under setting [2] was 2.3 nM.

As to `Cc1ncn2ncn(Cc3nc([C@H]4[C@@H]5CN(c6cc(Cl)ccn6)C[C@@H]54)no3)c(=O)c12` [Example Compound 116, 3-((3-((1R,5S,6r)-3-(4-chloropyridin-2-yl)-3-azabicyclo[3.1.0]hexan-6-yl)-1,2,4-oxadiazol-5-yl)methyl)-5-methylimidazo[5,1-f][1,2,4]triazin-4(3H)-one], the IC50 was found to be 61.1 nM under setting [1] and 50 nM under setting [2].

Take `Cc1cnn2ncn(Cc3nc([C@H]4[C@@H]5CN(c6cc(F)ccn6)C[C@@H]54)no3)c(=O)c12` [Example Compound 117, 3-((3-((1R,5S,6r)-3-(4-fluoropyridin-2-yl)-3-azabicyclo[3.1.0]hexan-6-yl)-1,2,4-oxadiazol-5-yl)methyl)-5-methylpyrazolo[5,1-f][1,2,4]triazin-4(3H)-one]: the concentration for half-maximal inhibition (IC50) came out at 19.2 nM under setting [1] and 7.5 nM under setting [2].

`COc1ccc(C2=C[C@@H]3[C@H](C2)[C@H]3c2noc(Cn3cnc4ncn(C)c4c3=O)n2)cc1` [Example Compound 118, 1-((3-((1S,5S,6R)-3-(4-methoxyphenyl)bicyclo[3.1.0]hex-2-en-6-yl)-1,2,4-oxadiazol-5-yl)methyl)-7-methyl-1,7-dihydro-6H-purin-6-one]: the IC50 under setting [1] was found to be 41.8 nM and the concentration for half-maximal inhibition (IC50) under setting [2] was 15 nM.

Consider `COc1ccc(C2=C[C@H]3[C@@H](C2)[C@@H]3c2noc(Cn3cnc4ncn(C)c4c3=O)n2)cc1` [Example Compound 119, 1-((3-((1R,5R,6S)-3-(4-methoxyphenyl)bicyclo[3.1.0]hex-2-en-6-yl)-1,2,4-oxadiazol-5-yl)methyl)-7-methyl-1,7-dihydro-6H-purin-6-one], for which the IC50 by setting is: under setting [1], 26.6 nM; under setting [2], 16 nM.

Consider `Cn1cnc2ncn(Cc3nc([C@H]4[C@@H]5CN(c6cc7ccccc7cn6)C[C@@H]54)no3)c(=O)c21` [Example Compound 120, 1-((3-((1R,5S,6r)-3-(isoquinolin-3-yl)-3-azabicyclo[3.1.0]hexan-6-yl)-1,2,4-oxadiazol-5-yl)methyl)-7-methyl-1,7-dihydro-6H-purin-6-one], for which the IC50 worked out at 90.8 nM under setting [1] and 81 nM under setting [2].

For `O=c1c2c(Cl)ccnc2ncn1Cc1nc([C@H]2C[C@](F)(c3ccc(Cl)cc3)C2)no1` [Example Compound 121, 5-chloro-3-((3-((1s,3s)-3-(4-chlorophenyl)-3-fluorocyclobutyl)-1,2,4-oxadiazol-5-yl)methyl)pyrido[2,3-d]pyrimidin-4(3H)-one], the half-inhibitory concentration (IC50) reads like this: under setting [1], 13.1 nM; under setting [2], 22 nM.

As for `Cn1cnc2ncn(Cc3nc([C@H]4[C@@H]5C=C(c6ccc(Cl)cn6)C[C@@H]54)no3)c(=O)c21` [Example Compound 122, 1-((3-((1S,5S,6R)-3-(5-chloropyridin-2-yl)bicyclo[3.1.0]hex-2-en-6-yl)-1,2,4-oxadiazol-5-yl)methyl)-7-methyl-1,7-dihydro-6H-purin-6-one], the IC50 runs as follows: under setting [1], 142 nM; under setting [2], 130 nM.

On to `Cn1cnc2ncn(Cc3nc([C@@H]4[C@H]5C=C(c6ccc(Cl)cn6)C[C@H]54)no3)c(=O)c21` [Example Compound 123, 1-((3-((1R,5R,6S)-3-(5-chloropyridin-2-yl)bicyclo[3.1.0]hex-2-en-6-yl)-1,2,4-oxadiazol-5-yl)methyl)-7-methyl-1,7-dihydro-6H-purin-6-one], for which the IC50 under setting [1] was found to be 296 nM and the half-inhibitory concentration (IC50) under setting [2] was found to be 360 nM.

Regarding `Cn1cnc2ncn(Cc3nc([C@@H]4[C@H]5C=C(c6ccc(F)cc6)C[C@H]54)no3)c(=O)c21` [Example Compound 124, 1-((3-((1R,5R,6S)-3-(4-fluorophenyl)bicyclo[3.1.0]hex-2-en-6-yl)-1,2,4-oxadiazol-5-yl)methyl)-7-methyl-1,7-dihydro-6H-purin-6-one], the IC50 is, setting by setting: under setting [1], 10.9 nM; under setting [2], 7.5 nM.

Take `Cn1cnc2ncn(Cc3nc([C@H]4[C@@H]5C=C(c6ccc(F)cc6)C[C@@H]54)no3)c(=O)c21` [Example Compound 125, 1-((3-((1S,5S,6R)-3-(4-fluorophenyl)bicyclo[3.1.0]hex-2-en-6-yl)-1,2,4-oxadiazol-5-yl)methyl)-7-methyl-1,7-dihydro-6H-purin-6-one]: the IC50 by setting is: under setting [1], 7.48 nM; under setting [2], 3 nM.

Turning to `Cn1cnc2ncn(Cc3nc([C@H]4[C@@H]5C=C(c6ccncc6)C[C@@H]54)no3)c(=O)c21` [Example Compound 126, 7-methyl-1-((3-((1S,5S,6R)-3-(pyridin-4-yl)bicyclo[3.1.0]hex-2-en-6-yl)-1,2,4-oxadiazol-5-yl)methyl)-1,7-dihydro-6H-purin-6-one], the IC50 worked out at 189 nM under setting [1] and 96 nM under setting [2].

With `Cn1cnc2ncn(Cc3nc([C@@H]4[C@H]5C=C(c6ccncc6)C[C@H]54)no3)c(=O)c21` [Example Compound 127, 7-methyl-1-((3-((1R,5R,6S)-3-(pyridin-4-yl)bicyclo[3.1.0]hex-2-en-6-yl)-1,2,4-oxadiazol-5-yl)methyl)-1,7-dihydro-6H-purin-6-one], the IC50 is, setting by setting: under setting [1], 129 nM; under setting [2], 85 nM.

With `Cn1cnc2ncn(Cc3nc([C@@H]4[C@H]5C=C(c6ccccn6)C[C@H]54)no3)c(=O)c21` [Example Compound 128, 7-methyl-1-((3-((1R,5R,6S)-3-(pyridin-2-yl)bicyclo[3.1.0]hex-2-en-6-yl)-1,2,4-oxadiazol-5-yl)methyl)-1,7-dihydro-6H-purin-6-one], the IC50 was determined as 118 nM under setting [1] and 78 nM under setting [2].
